# Reference: patent US10294243B2, “Bicyclic compounds as pesticides” (BAYER CROPSCIENCE AKTIENGESELLSCHAFT, priority 2014, dated 2019)
# Read-outs that look alike come from different tables or passages of the source.
# Key:
# Myzus persicae = Myzus persicae - spray test (Chinese cabbage leaf discs); format: in vivo; details: application rate 500 g/ha, after 6 days; for pest or weed control at 500 g/ha: Myzus persicae, foliar, 144 h, read-out: efficacy (aphids killed)
# Experimental: Myzus persicae—Spray Test
# Solvent: 78 parts by weight of acetone • • 1.5 parts by weight of dimethylformamide
# (§1) Emulsifier: alkylaryl polyglycol ether
# To produce further test concentrations, the preparation is diluted with emulsifier-containing water.
# After 6 days, the efficacy in % is determined 100% means that all the aphids have been killed; 0% means that none of the aphids have been killed.
# [1] = log P by HPLC on reversed-phase C18 columns (OECD Guideline 117); method [a] acidic pH 2.7, method [b] neutral pH 7.8; format: physicochemical; details: for chromatographic logP: reversed-phase C18 HPLC column
# Phaedon cochleariae = Phaedon cochleariae - spray test; format: in vivo; details: application rate 500 g/ha, Chinese cabbage leaf discs, after 7 days
# Description: Phaedon cochleariae—Spray Test
# as §1
# [2] = HPLC reversed-phase C18, method [a] acidic pH 2.7
# [3] = HPLC reversed-phase C18, method [b] neutral pH 7.8
# [4] = HPLC reversed-phase C18, method [a] acidic pH 2.7, read-out: logP[a]
# [5] = HPLC reversed-phase C18, method [b] neutral pH 7.8, read-out: logP[b]
structure (smiles),measurement,setting,value
O=c1c2sc(-c3cccnc3)nc2ncn1-c1cccc(OCC(F)(F)F)c1 [Compound 41],efficacy (aphids killed),Myzus persicae,90%
same,logP[a],[1]; [2],2.33
same,logP[b],[1]; [3],2.34
O=c1c2sc(-c3cccnc3)nc2ncn1-c1ccc(Cl)cc1 [Compound 43],efficacy (aphids killed),Myzus persicae,100%
same,logP[a],[1]; [2],2.05
same,logP[b],[1]; [3],2.06
O=c1c2sc(-c3cccnc3)nc2ncn1-c1cc([S+]([O-])CC2CC2)ccc1F (stereo not shown) [Compound 45],efficacy (aphids killed),Myzus persicae,100%
same,logP[a],[1]; [2],1.63
same,logP[b],[1]; [3],1.66
O=c1c2sc(-c3cccnc3)nc2ncn1-c1cc(SCC(F)(F)F)ccc1F [Compound 46],efficacy (aphids killed),Myzus persicae,90%
same,logP[a],[1]; [2],2.60
same,logP[b],[1]; [3],2.56
Cc1ccc(-n2cnc3nc(-c4cccnc4)sc3c2=O)cc1SCC(F)(F)F [Compound 47],efficacy (aphids killed),Myzus persicae,90%
same,logP[a],[1]; [2],2.73
same,logP[b],[1]; [3],2.75
Cc1ccc(-n2cnc3nc(-c4cccnc4)sc3c2=O)cc1[S+]([O-])CC(F)(F)F (stereo not shown) [Compound 48],efficacy (aphids killed),Myzus persicae,100%
same,logP[a],[1]; [2],1.86
same,logP[b],[1]; [3],1.85
"Cc1cc(C)c(-n2cnc3nc(-c4cccnc4)sc3c2=O)cc1SCC(F)(F)F [Compound 49, 6-{2,4-Dimethyl-5-[(2,2,2-trifluoroethyl)sulphanyl]phenyl}-2-(pyridin-3-yl)[1,3]thiazolo[4,5-d]pyrimidin-7(6H)-one]",pest or weed control at 500 g/ha,Myzus persicae,100%
same,chromatographic logP,[1]; [4],3.04
same,chromatographic logP,[1]; [5],2.98
"Cc1cc(C)c([S+]([O-])CC(F)(F)F)cc1-n1cnc2nc(-c3cccnc3)sc2c1=O (stereo not shown) [Compound 50, 6-{2,4-Dimethyl-5-[(2,2,2-trifluoroethyl)sulphinyl]phenyl}-2-(pyridin-3-yl)[1,3]thiazolo[4,5-d]pyrimidin-7(6H)-one]",pest or weed control at 500 g/ha,Myzus persicae,100%
same,chromatographic logP,[1]; [4],2.06
same,chromatographic logP,[1]; [5],2.01
O=c1c2sc(-c3cccnc3)nc2ncn1-c1cc(SCC(F)(F)F)c(Cl)cc1Cl [Compound 51],efficacy (aphids killed),Myzus persicae,100%
same,logP[a],[1]; [2],3.25
same,logP[b],[1]; [3],3.17
CN(C)C(=O)CSc1cccc(-n2cnc3nc(-c4cccnc4)sc3c2=O)c1 [Compound 52],efficacy (aphids killed),Myzus persicae,90%
same,logP[a],[1]; [2],1.57
same,logP[b],[1]; [3],1.55
"Cc1cc(F)c(-n2cnc3nc(-c4cccnc4)sc3c2=O)cc1SCC(=O)N(C)C [Compound 54, 2-({4-Fluoro-2-methyl-5-[7-oxo-2-(pyridin-3-yl)[1,3]thiazolo[4,5-d]pyrimidin-6(7H)-yl]phenyl}sulphanyl)-N,N-dimethylacetamide]",pest or weed control at 500 g/ha,Myzus persicae,100%
same,chromatographic logP,[1]; [4],1.9
same,chromatographic logP,[1]; [5],1.91
"Cc1cc(F)c(-n2cnc3nc(-c4cccnc4)sc3c2=O)cc1[S+]([O-])CC(=O)N(C)C (stereo not shown) [Compound 55, 2-({4-Fluoro-2-methyl-5-[7-oxo-2-(pyridin-3-yl)[1,3]thiazolo[4,5-d]pyrimidin-6(7H)-yl]phenyl}sulphinyl)-N,N-dimethylacetamide]",pest or weed control at 500 g/ha,Myzus persicae,90%
same,chromatographic logP,[1]; [4],1.38
same,chromatographic logP,[1]; [5],1.38
"Cc1cc(F)c(-n2c(C)nc3nc(-c4cccnc4)sc3c2=O)cc1SCC(F)(F)F [Compound 56, 6-{2-Fluoro-4-methyl-5-[(2,2,2-trifluoroethyl)sulphanyl]phenyl}-5-methyl-2-(pyridin-3-yl)[1,3]thiazolo[4,5-d]pyrimidin-7(6H)-one]",pest or weed control at 500 g/ha,Myzus persicae,90%
same,chromatographic logP,[1]; [4],3.25
same,chromatographic logP,[1]; [5],3
"Cc1cc(F)c(-n2nnc3nc(-c4cccnc4)sc3c2=O)cc1SCC(F)(F)F [Compound 58, 3-{2-Fluoro-4-methyl-5-[(2,2,2-trifluoroethyl)sulphanyl]phenyl}-6-(pyridin-3-yl)[1,3]thiazolo[4,5-d][1,2,3]triazin-4(3H)-one]",pest or weed control at 500 g/ha,Myzus persicae,90%
same,chromatographic logP,[1]; [4],3.45
same,chromatographic logP,[1]; [5],3.32
"Cc1cc(F)c(-n2nnc3nc(-c4cccnc4)sc3c2=O)cc1[S+]([O-])CC(F)(F)F (stereo not shown) [Compound 59, 3-{2-Fluoro-4-methyl-5-[(2,2,2-trifluoroethyl)sulphinyl]phenyl}-6-(pyridin-3-yl)[1,3]thiazolo[4,5-d][1,2,3]triazin-4(3H)-one]",pest or weed control at 500 g/ha,Myzus persicae,90%
same,chromatographic logP,[1]; [4],2.4
same,chromatographic logP,[1]; [5],2.35
CCSc1ccc(-n2cnc3nc(-c4cccnc4)sc3c2=O)cc1 [Compound 60],efficacy (aphids killed),Myzus persicae,100%
same,logP[a],[1]; [2],2.41
same,logP[b],[1]; [3],2.45
CC[S+]([O-])c1ccc(-n2cnc3nc(-c4cccnc4)sc3c2=O)cc1 (stereo not shown) [Compound 61],efficacy (aphids killed),Myzus persicae,100%
same,logP[a],[1]; [2],1.10
same,logP[b],[1]; [3],1.22
"O=c1c2sc(-c3cccnc3)nc2ncn1-c1ccc(SC(F)(F)F)cc1 [Compound 62, 2-(Pyridin-3-yl)-6-{4-[(trifluoromethyl)sulphanyl]phenyl}[1,3]thiazolo[4,5-d]pyrimidin-7(6H)-one]",efficacy (beetle larvae killed),Phaedon cochleariae,100%
same,pest or weed control at 500 g/ha,Myzus persicae,90%
same,chromatographic logP,[1]; [4],2.71
same,chromatographic logP,[1]; [5],2.69
Cc1cc(SC(F)(F)F)ccc1-n1cnc2nc(-c3cccnc3)sc2c1=O [Compound 64],efficacy (aphids killed),Myzus persicae,100%
same,logP[a],[1]; [2],2.91
same,logP[b],[1]; [3],2.89
CCSc1ccccc1-n1cnc2nc(-c3cccnc3)sc2c1=O [Compound 66],efficacy (aphids killed),Myzus persicae,100%
same,logP[a],[1]; [2],2.20
same,logP[b],[1]; [3],2.21
CC[S+]([O-])c1ccccc1-n1cnc2nc(-c3cccnc3)sc2c1=O (stereo not shown) [Compound 67],efficacy (aphids killed),Myzus persicae,90%
same,logP[a],[1]; [2],1.28
same,logP[b],[1]; [3],1.29
CSc1cc(-n2cnc3nc(-c4cncc(F)c4)sc3c2=O)ccc1C [Compound 70],efficacy (aphids killed),Myzus persicae,100%
same,logP[a],[1]; [2],2.82
same,logP[b],[1]; [3],2.75
Cc1cc(C)c(-n2cnc3nc(-c4cncc(F)c4)sc3c2=O)cc1SCC(F)(F)F [Compound 71],efficacy (aphids killed),Myzus persicae,90%
same,logP[a],[1]; [2],3.64
same,logP[b],[1]; [3],3.34
Cc1cc(C)c([S+]([O-])CC(F)(F)F)cc1-n1cnc2nc(-c3cncc(F)c3)sc2c1=O (stereo not shown) [Compound 72],efficacy (aphids killed),Myzus persicae,90%
same,logP[a],[1]; [2],2.35
same,logP[b],[1]; [3],2.29
"Cc1cc(F)c(-n2cnc3nc(-c4cncc(F)c4)sc3c2=O)cc1SCC(F)(F)F [Compound 73, 6-{2-Fluoro-4-methyl-5-[(2,2,2-trifluoroethyl)sulphanyl]phenyl}-2-(5-fluoropyridin-3-yl)[1,3]thiazolo[4,5-d]pyrimidin-7(6H)-one]",pest or weed control at 500 g/ha,Myzus persicae,90%
same,chromatographic logP,[1]; [4],3.36
same,chromatographic logP,[1]; [5],3.25
"Cc1cc(F)c(-n2cnc3nc(-c4cncc(F)c4)sc3c2=O)cc1[S+]([O-])CC(F)(F)F (stereo not shown) [Compound 74, 6-{2-Fluoro-4-methyl-5-[(2,2,2-trifluoroethyl)sulphinyl]phenyl}-2-(5-fluoropyridin-3-yl)[1,3]thiazolo[4,5-d]pyrimidin-7(6H)-one]",pest or weed control at 500 g/ha,Myzus persicae,90%
same,chromatographic logP,[1]; [4],2.34
same,chromatographic logP,[1]; [5],2.26
"Cc1cc(C)c(-n2cnc3nc(-c4cncnc4)sc3c2=O)cc1SCC(F)(F)F [Compound 76, 6-{2,4-Dimethyl-5-[(2,2,2-trifluoroethyl)sulphanyl]phenyl}-2-(pyrimidin-5-yl)[1,3]thiazolo[4,5-d]pyrimidin-7(6H)-one]",pest or weed control at 500 g/ha,Myzus persicae,90%
same,chromatographic logP,[1]; [4],2.88
same,chromatographic logP,[1]; [5],2.77
"Cc1cc(C)c([S+]([O-])CC(F)(F)F)cc1-n1cnc2nc(-c3cncnc3)sc2c1=O (stereo not shown) [Compound 77, 6-{2,4-Dimethyl-5-[(2,2,2-trifluoroethyl)sulphinyl]phenyl}-2-(pyrimidin-5-yl)[1,3]thiazolo[4,5-d]pyrimidin-7(6H)-one]",pest or weed control at 500 g/ha,Myzus persicae,100%
same,chromatographic logP,[1]; [4],1.84
same,chromatographic logP,[1]; [5],1.82
Cc1cc(F)c(-n2cnc3nc(-c4cncnc4)sc3c2=O)cc1SCC(F)(F)F [Compound 78],efficacy (aphids killed),Myzus persicae,90%
same,logP[a],[1]; [2],2.73
same,logP[b],[1]; [3],2.65
CC(c1ncnn1C)n1cnc2nc(-c3cccnc3)sc2c1=O (stereo not shown) [Compound 86],efficacy (aphids killed),Myzus persicae,90%
same,logP[a],[1]; [2],1.01
same,logP[b],[1]; [3],1.07
